From patent US20130184302A1, “METHODS FOR TREATING IRRITABLE BOWEL SYNDROME (IBS) AND INFECTIONS” (priority 2011, published 2013)

How the values were obtained:
Format in all cases: in vivo, human
[1] = tested on: C. difficile infection (CDI); assay: CDI trial: subgroup analysis of diarrhea at TOC; details: at TOC
Source text: Tables 42 and 43 set forth a subgroup analysis of diarrhea at TOC.

[2] = tested on: C. difficile infection (CDI); assay: CDI trial: recurrence of CDI, recurrence rate per person-year
Source text: Recurrence was defined to be a diarrhea and a positive C. diff stool toxin assay that occurred after initial clinical success.

[3] = tested on: C. difficile infection (CDI); assay: CDI trial: continuing illnesses; details: Rifaximin N = 117, Vancomycin N = 115
[4] = tested on: C. difficile infection (CDI); assay: CDI trial: efficacy adjusting for concomitant medication usage
Source text: Table 48 sets forth the efficacy adjusting for concomitant medication usage.

[5] = tested on: C. difficile infection (CDI); assay: CDI trial: enteric symptoms at TOC; details: Rifaximin N = 108, Vancomycin N = 111
Source text: Table 41 sets forth a summary of the enteric symptoms at TOC.

[6] = tested on: C. difficile infection (CDI); assay: CDI trial: number of unformed stools during the treatment period; details: during the treatment period; ANOVA model with treatment and center as main effects; Rifaximin N = 117, Vancomycin N = 115
Source text: FIG. 18 sets for the average number of unformed stools per day of the study.

[7] = tested on: C. difficile infection (CDI); assay: CDI trial: global cure of diarrhea; details: Rifaximin N = 117, Vancomycin N = 115
Source text: Subjects having a global cure of diarrhea are set for the in Table 45. Global cure of diarrhea was defined as subjects who were cured of diarrhea at TOC without recurrence at follow up.

[8] = tested on: C. difficile infection (CDI); assay: CDI trial rifaximin 400 mg TID vs vancomycin 125 mg QID: clinical success at Test of Cure; details: at TOC (Day 14+/−1)
Description: Criteria for entry into the trial were: • Age>=18 years old; • Had acute diarrhea at screening defined as >=3 unformed stools in the last 24 hours and at least one sign of enteric infection (fever, nausea, lose of appetite, vomiting, severe abdominal pain/discomfort); and • a positive C. diff stool toxin assay
The primary efficacy endpoint of the study was defined as the proportion of subjects achieving clinical success. Specifically, clinical success was defined as the absence of severe abdominal pain at Test of Cure (TOC), absence of fever (<38° C.) at TOC, and <3 unformed stools for two consecutive days at TOC.
The non-inferiority margin for the primary endpoint was defined as lower bound of 95% CI of delta above −15%.
Clinical success was defined as the: Absence of severe abdominal pain at TOC, absence of fever (<38° C.) at TOC, and <3 unformed stools for two consecutive days at TOC. Test of cure defined as Day 14+/−1 day.

[9] = subgroup Age <65, Rifaximin N = 69, Vancomycin N = 62
[10] = subgroup Age >=65, Rifaximin N = 39, Vancomycin N = 49
[11] = subgroup Female, Rifaximin N = 68, Vancomycin N = 64
[12] = subgroup Male, Rifaximin N = 40, Vancomycin N = 47
[13] = after initial clinical success, Rifaximin N = 67, Vancomycin N = 73
[14] = all subjects, Rifaximin N = 117, Vancomycin N = 115
[15] = Rifaximin N = 109, Vancomycin N = 112
[16] = Rifaximin N = 117, Vancomycin N = 115
[17] = cured of diarrhea at TOC without recurrence at follow up

Structure (SMILES): CN[C@H](CC(C)C)C(=O)N[C@H]1C(=O)N[C@@H](CC(N)=O)C(=O)N[C@H]2C(=O)N[C@H]3C(=O)N[C@H](C(=O)N[C@H](C(=O)O)c4cc(O)cc(O)c4-c4cc3ccc4O)[C@H](O)c3ccc(c(Cl)c3)Oc3cc2cc(c3O[C@@H]2O[C@H](CO)[C@@H](O)[C@H](O)[C@H]2O[C@H]2C[C@](C)(N)[C@H](O)[C@H](C)O2)Oc2ccc(cc2Cl)[C@H]1O [Vancomycin, vancomycin]
- Diarrhea, number of subjects [1, 9]: 12
- Diarrhea, percent of subjects [1, 9]: (19%)
- No Diarrhea, number of subjects [1, 9]: 50
- No Diarrhea, percent of subjects [1, 9]: (81%)
- Diarrhea, number of subjects [1, 10]: 9
- Diarrhea, percent of subjects [1, 10]: (18%)
- No Diarrhea, number of subjects [1, 10]: 40
- No Diarrhea, percent of subjects [1, 10]: (82%)
- Diarrhea, number of subjects [1, 11]: 11
- Diarrhea, percent of subjects [1, 11]: (17%)
- No Diarrhea, number of subjects [1, 11]: 53
- No Diarrhea, percent of subjects [1, 11]: (83%)
- Diarrhea, number of subjects [1, 12]: 10
- Diarrhea, percent of subjects [1, 12]: (21%)
- No Diarrhea, number of subjects [1, 12]: 37
- No Diarrhea, percent of subjects [1, 12]: (79%)
- No Recurrence of CDI, number of subjects [2, 13]: 63
- No Recurrence of CDI, percent of subjects [2, 13]: (86%)
- Recurrence of CDI, number of subjects [2, 13]: 10
- Recurrence of CDI, percent of subjects [2, 13]: (14%)
- Recurrence: No, number of subjects [2, 14]: 105
- Recurrence: No, percent of subjects [2, 14]: (93%)
- Recurrence: Yes, number of subjects [2, 14]: 10
- Recurrence: Yes, percent of subjects [2, 14]: (7%)
- Continuing Illness: No, number of subjects [3]: 99
- Continuing Illness: No, percent of subjects [3]: (86%)
- Continuing Illness: Yes, number of subjects [3]: 16
- Continuing Illness: Yes, percent of subjects [3]: (14%)
- Diarrhea: No, number of subjects [4, 15]: 82
- Diarrhea: No, percent of subjects [4, 15]: (73%)
- Diarrhea: Yes, number of subjects [4, 15]: 30
- Diarrhea: Yes, percent of subjects [4, 15]: (27%)
- Clinical Success: No, number of subjects [4, 16]: 46
- Clinical Success: No, percent of subjects [4, 16]: (40%)
- Clinical Success: Yes, number of subjects [4, 16]: 69
- Clinical Success: Yes, percent of subjects [4, 16]: (60%)
- Diarrhea: No, number of subjects [5]: 90
- Diarrhea: No, percent of subjects [5]: (81%)
- Diarrhea: Yes, number of subjects [5]: 21
- Diarrhea: Yes, percent of subjects [5]: (19%)
- Fever: No, number of subjects [5]: 109
- Fever: No, percent of subjects [5]: (98%)
- Fever: Yes, number of subjects [5]: 2
- Fever: Yes, percent of subjects [5]: (2%)
- Severe Abdominal Pain/Discomfort: No, number of subjects [5]: 95
- Severe Abdominal Pain/Discomfort: No, percent of subjects [5]: (86%)
- Severe Abdominal Pain/Discomfort: Yes, number of subjects [5]: 16
- Severe Abdominal Pain/Discomfort: Yes, percent of subjects [5]: (14%)
- Adjusted mean number of unformed stools-ANOVA [6]: 1.90
- Global Cure of Diarrhea: No, number of subjects [7]: 30
- Global Cure of Diarrhea: No, percent of subjects [7]: (26%)
- Global Cure of Diarrhea: Yes, number of subjects [7, 17]: 85
- Global Cure of Diarrhea: Yes, percent of subjects [7, 17]: (74%)
- Clinical Success: Yes, number of subjects ([8]; Rifaximin 400 mg TID N = 117, Vancomycin 125 mg QID N = 115): 73
- Clinical Success: No, number of subjects [8, 16]: 42
- Clinical Success: No, percent of subjects [8, 16]: (37%)
- Clinical Success: Yes, percent of subjects [8, 16]: (64%)
